Results taken from article PMC3875304 (Journal of medicinal chemistry, 2009).
pEC50: −log10 of the molar value. Entries after “also recorded” stand apart in the source; their conditions may differ. Like-named read-outs stand apart in the source and are kept apart here. Each block holds one compound with its values, some of them ahead of it.

Experiments:
M1 [1] = target: T1, M1 (Homo sapiens, UniProt P11229); experiment: Ca2+ mobilization potentiation of ACh ~EC20, M1 CHO cells; assay type: cell-based
T1 sequence (P11229 1-460): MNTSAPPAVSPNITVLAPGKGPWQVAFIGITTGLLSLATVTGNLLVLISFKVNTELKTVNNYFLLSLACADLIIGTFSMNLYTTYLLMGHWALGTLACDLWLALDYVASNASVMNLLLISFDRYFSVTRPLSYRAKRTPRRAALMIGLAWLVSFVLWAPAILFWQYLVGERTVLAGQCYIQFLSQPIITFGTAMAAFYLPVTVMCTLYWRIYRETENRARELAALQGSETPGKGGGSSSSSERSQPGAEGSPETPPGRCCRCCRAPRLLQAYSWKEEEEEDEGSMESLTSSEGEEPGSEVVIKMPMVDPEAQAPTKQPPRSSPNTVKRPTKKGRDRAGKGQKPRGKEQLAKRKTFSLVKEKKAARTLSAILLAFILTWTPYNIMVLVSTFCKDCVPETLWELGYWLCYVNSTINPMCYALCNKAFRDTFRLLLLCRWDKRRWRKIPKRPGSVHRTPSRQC

M4 = target: T2, M4 (Homo sapiens, UniProt P08173); assay type: cell-based; conditions: for M4 potentiator activity: fixed ACh ~EC20, Ca2+ assay, Gqi5 cotransfected, up to 30 µM
T2 sequence (P08173 1-479): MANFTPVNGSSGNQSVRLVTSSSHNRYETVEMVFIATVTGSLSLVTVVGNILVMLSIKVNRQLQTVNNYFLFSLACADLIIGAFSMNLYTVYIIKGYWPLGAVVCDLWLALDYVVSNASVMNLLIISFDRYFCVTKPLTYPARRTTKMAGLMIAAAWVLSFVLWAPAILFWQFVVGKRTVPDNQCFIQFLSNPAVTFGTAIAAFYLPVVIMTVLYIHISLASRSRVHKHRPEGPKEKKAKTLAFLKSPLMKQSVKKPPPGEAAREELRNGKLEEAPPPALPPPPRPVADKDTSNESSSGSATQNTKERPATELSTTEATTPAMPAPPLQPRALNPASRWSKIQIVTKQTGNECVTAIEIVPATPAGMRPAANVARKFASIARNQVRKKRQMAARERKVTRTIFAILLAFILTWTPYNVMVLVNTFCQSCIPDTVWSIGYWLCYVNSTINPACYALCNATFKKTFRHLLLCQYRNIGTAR

M5 [2] = target: T3, M5 (Homo sapiens, UniProt P08912); experiment: Ca2+ mobilization assay, M5 CHO cells; assay type: cell-based
T3 sequence (P08912 1-532): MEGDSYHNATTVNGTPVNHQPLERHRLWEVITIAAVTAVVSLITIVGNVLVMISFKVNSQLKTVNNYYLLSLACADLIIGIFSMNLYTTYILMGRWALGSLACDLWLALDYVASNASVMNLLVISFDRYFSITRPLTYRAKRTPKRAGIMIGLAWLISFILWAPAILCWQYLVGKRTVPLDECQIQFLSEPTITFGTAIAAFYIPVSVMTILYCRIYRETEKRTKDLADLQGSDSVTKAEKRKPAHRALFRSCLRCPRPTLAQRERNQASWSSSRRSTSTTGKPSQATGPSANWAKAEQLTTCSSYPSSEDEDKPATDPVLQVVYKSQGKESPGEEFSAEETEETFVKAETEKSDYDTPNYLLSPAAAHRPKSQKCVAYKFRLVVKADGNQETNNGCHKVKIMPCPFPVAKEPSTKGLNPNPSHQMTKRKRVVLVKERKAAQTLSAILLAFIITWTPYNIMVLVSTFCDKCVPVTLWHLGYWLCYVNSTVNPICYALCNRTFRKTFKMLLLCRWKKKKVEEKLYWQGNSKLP

M2 = target: T4, M2 (Homo sapiens, UniProt P08172); assay type: cell-based; conditions: fixed ACh ~EC20, Ca2+ assay, Gqi5 cotransfected, up to 30 µM
T4 sequence (P08172 1-466): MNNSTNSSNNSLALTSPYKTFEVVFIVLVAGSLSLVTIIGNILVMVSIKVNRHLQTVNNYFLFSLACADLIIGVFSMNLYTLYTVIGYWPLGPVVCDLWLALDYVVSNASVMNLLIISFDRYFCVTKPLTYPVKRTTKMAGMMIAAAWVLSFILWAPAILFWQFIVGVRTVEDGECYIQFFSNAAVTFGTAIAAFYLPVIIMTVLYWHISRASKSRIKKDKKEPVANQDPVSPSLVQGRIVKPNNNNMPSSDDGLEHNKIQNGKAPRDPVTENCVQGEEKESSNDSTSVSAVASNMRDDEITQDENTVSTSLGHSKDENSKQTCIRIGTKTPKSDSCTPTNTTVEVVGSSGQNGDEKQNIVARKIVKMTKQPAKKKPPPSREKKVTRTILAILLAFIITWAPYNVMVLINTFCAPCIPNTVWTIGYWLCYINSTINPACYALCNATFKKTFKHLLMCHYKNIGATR

M5 [3] = target: T3, M5; experiment: [3H]-NMS competition binding, M5-CHO membrane preparations; conditions: up to 30 µM, M5-CHO membranes
M1 [4] = target: T1, M1; conditions: fixed 30 µM compound, at M1; cited from earlier work

pEC50 (M4): < 5.00 | M4 potentiator activity (M4): modest potentiation | M2 potentiator activity (M2): modest potentiation
Compound: O=C1C(=O)N(Cc2ccc(C(F)(F)F)cc2)c2c(Cl)cccc21 [compound 56]

pEC50 (M1 [1]): < 4.52
Compound: O=C1C(=O)N(Cc2ccccc2Cl)c2ccc(OC(F)(F)F)cc21 [compound 64]

pEC50 (M1 [1]): < 4.52
Compound: O=C1C(=O)N(Cc2ccc(OC(F)(F)F)cc2)c2ccc(OC(F)(F)F)cc21 [compound 110]

pEC50 (M1 [1]): < 4.52
Compound: Cc1ccccc1CN1C(=O)C(=O)c2cc(OC(F)(F)F)ccc21 [compound 111]

pEC50 (M1 [1]): < 4.52
Compound: O=C1C(=O)N(Cc2ccc(Br)cc2F)c2ccc(OC(F)(F)F)cc21 [compound 112]

More lines, now with the values behind:

Compound: COc1ccc(CN2C(=O)C(=O)c3ccccc32)cc1 [compound 22]
pEC50 (M1 [1]): < 5.00

Compound: COc1cccc(CN2C(=O)C(=O)c3c(Cl)ccc(Cl)c32)c1 [compound 38]
pEC50 (M1 [1]): < 4.52

Compound: COc1cccc(CN2C(=O)C(=O)c3cc(OC(F)(F)F)ccc32)c1 [compound 41]
pEC50 (M1 [1]): < 4.52

Compound: COc1ccc(CN2C(=O)C(=O)c3cc(OC(F)(F)F)ccc32)cc1 [compound 42]
pEC50 (M1 [1]): < 4.52 | M4 potentiator activity (M4): lack of potentiation activity; also recorded: inactive | M4 potentiator activity (M4; listed as VU0238429): no M2 or M4 potentiator activity | intrinsic agonist activity at M5 (M5 [2]; compound alone, absence of ACh, up to 30 µM, Ca2+ assay): absence of intrinsic agonist activity; also recorded: lacked intrinsic agonist activity | selectivity for M5 versus M1 and M3 (M5 [2]; from EC50 in Ca2+ assays): > 30 fold | selectivity for M5 versus the other four subtypes (M5 [2]; from EC50 in Ca2+ assays): > 30 × | M2 potentiator activity (M2): lack of potentiation activity; also recorded: inactive | M2 potentiator activity (M2; listed as VU0238429): no M2 or M4 potentiator activity | competition with [3H]-NMS binding to M5 (M5 [3]): lack of competition; also recorded: lacked competition

Compound: O=C1C(=O)N(Cc2ccccc2C(F)(F)F)c2c(F)cccc21 [compound 49]
pEC50 (M1 [1]): < 4.52

Compound: O=C1C(=O)N(Cc2ccc(Br)cc2)c2ccccc21 [compound 113]
M4 potentiator activity (M4): lacked potentiator effects; also recorded: inactive | leftward shift of full ACh CRC (M1 [4]): 14 fold | M2 potentiator activity (M2): lacked potentiator effects; also recorded: inactive
